Results as given in patent publication US20240067693A1, “POLYPEPTIDES AND USES THEREOF” (MEDIMMUNE LIMITED, priority 2020, published 2024).
Numbered stars: 1 amine (or outer) side, 2 acyl side, 3 side chain; on linkers, the order of the positions; unused ones are H or OH. Bridge positions count the residues as written; N and C are the ends. Square brackets hold non-standard residues; d marks the D form. Side chains are listed from the residue outwards. Peptide text beside a SMILES is read from it. * marks the point of attachment. C18 diacid = O=C(O)CCCCCCCCCCCCCCCCC(=O)*; γGlu = O=C(O)[C@H](CCC(=O)[*:2])N[*:1]; Dab = NCC[C@H](N)C(=O)O; AEEA = NCCOCCOCC(=O)O; Aib = CC(C)(N)C(=O)O

Key:
[1] = target: T1, human amylin receptor (calcitonin receptor co-expressed with receptor activity modifying protein, RAMP3) (hAMYR3) (Homo sapiens, UniProt O60896+P30988); experiment: cAMP production in 1321N1 cells with stable recombinant expression of human amylin receptor (hAMYR3); assay type: cell-based; conditions: for Ratio (selectivity hAMYR vs hCTR, ratio of EC50 values at the two receptors): EC50 hCTR / EC50 hAMYR3; for EC50: cAMP, 1321N1 cells, assay buffer with 0.1% BSA, read-out: EC50 (pM) hAMYR3
T1 construct: expressed in transfected cells
T1 sequence (P30988 25-474): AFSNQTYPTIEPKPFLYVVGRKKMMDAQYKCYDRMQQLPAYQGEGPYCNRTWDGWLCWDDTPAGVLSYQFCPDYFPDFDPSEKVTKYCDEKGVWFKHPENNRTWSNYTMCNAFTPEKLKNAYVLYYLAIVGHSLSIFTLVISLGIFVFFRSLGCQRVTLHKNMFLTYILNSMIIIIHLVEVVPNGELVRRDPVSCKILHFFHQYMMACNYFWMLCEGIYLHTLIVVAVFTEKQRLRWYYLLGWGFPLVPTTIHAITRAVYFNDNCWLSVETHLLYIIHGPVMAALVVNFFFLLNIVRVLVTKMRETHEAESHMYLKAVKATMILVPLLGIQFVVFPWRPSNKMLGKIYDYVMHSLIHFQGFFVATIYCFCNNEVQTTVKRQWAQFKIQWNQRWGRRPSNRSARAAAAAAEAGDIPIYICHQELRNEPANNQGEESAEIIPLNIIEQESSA
T1 sequence (O60896 24-148 partner): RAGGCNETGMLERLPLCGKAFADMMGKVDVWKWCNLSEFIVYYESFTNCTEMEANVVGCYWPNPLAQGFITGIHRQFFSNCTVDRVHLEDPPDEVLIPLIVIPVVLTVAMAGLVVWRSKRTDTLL
Method in brief: (§1)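 EC50 values come from 4-parameter logistic fits of HTRF cAMP signal, normalised to maximal calcitonin or amylin effect. Peptides were tested in duplicate for 30 min at RT in IBMX-containing (0.5 mM) BSA/HEPES buffer pH 7.4 on stable 1321N1 (human CTR, AMYR3) or HEK (rat CTR, AMYR3) lines.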

[2] = target: T2, human calcitonin receptor (hCTR) (Homo sapiens, UniProt P30988); experiment: cAMP production in 1321N1 cells with stable recombinant expression of human calcitonin receptor (hCTR); assay type: cell-based; conditions: cAMP, 1321N1 cells, assay buffer with 0.1% BSA; read-out: EC50 (pM) hCTR
T2 construct: expressed in transfected cells
T2 sequence (P30988 25-474): T1 sequence (P30988 25-474)
Method in brief: as §1

Row | Compound | Ratio (selectivity hAMYR vs hCTR, ratio of EC50 values at the two receptors) [1] | EC50 [1] [pM] | EC50 [2] [pM]
1 | CC[C@H](C)[C@H](NC(=O)[C@@H]1CCCN1C(=O)CNC(=O)[C@H](Cc1ccccc1)NC(=O)[C@H](Cc1c[nH]cn1)NC(=O)[C@H](CC(N)=O)NC(=O)[C@H](CO)NC(=O)[C@H](CO)NC(=O)[C@H](Cc1c[nH]cn1)NC(=O)C(C)(C)NC(=O)[C@H](CC(C)C)NC(=O)[C@H](Cc1ccccc1)NC(=O)[C@H](CC(N)=O)NC(=O)[C@H](C)NC(=O)[C@H](CC(C)C)NC(=O)[C@H](CCCNC(=N)N)NC(=O)[C@H](CCC(N)=O)NC(=O)[C@@H](NC(=O)[C@H](C)NC(=O)[C@@H]1CSSC[C@H](NC(=O)[C@H](CCCCN)NC(=O)[C@@H](N)CCCCNC(=O)CC[C@H](NC(=O)CCCCCCCCCCCCCCCCC(=O)O)C(=O)O)C(=O)N[C@@H](CC(N)=O)C(=O)N[C@@H]([C@@H](C)O)C(=O)N[C@@H](C)C(=O)N[C@@H]([C@@H](C)O)C(=O)N1)[C@@H](C)O)C(=O)N[C@@H](CC(C)C)C(=O)N1CCC[C@H]1C(=O)N1CCC[C@H]1C(=O)N[C@H](C(=O)N[C@@H](CC(N)=O)C(=O)N[C@H](C(=O)NCC(=O)N[C@@H](CO)C(=O)N[C@@H](CCC(=O)O)C(=O)N[C@H](C(=O)N[C@@H](Cc1ccc(O)cc1)C(N)=O)[C@@H](C)O)C(C)C)[C@@H](C)O [Peptide 147] (H-K([γGlu-C18 diacid])KCNTATCATQRLANFL[Aib]HSSNHFGPILPPTNVGSETY-NH2; disulfide 3-8; N-terminus assumed) | 1.9 | 802 | 1510
2 | CC[C@H](C)[C@H](NC(=O)[C@@H]1CCCN1C(=O)CNC(=O)[C@H](Cc1ccccc1)NC(=O)[C@H](CC(N)=O)NC(=O)[C@H](CC(N)=O)NC(=O)[C@H](CO)NC(=O)[C@H](CO)NC(=O)[C@H](Cc1c[nH]cn1)NC(=O)C(C)(C)NC(=O)[C@H](CC(C)C)NC(=O)[C@H](Cc1ccccc1)NC(=O)[C@H](CC(N)=O)NC(=O)[C@H](C)NC(=O)[C@H](CC(C)C)NC(=O)[C@H](CCCNC(=N)N)NC(=O)[C@H](CCC(N)=O)NC(=O)[C@@H](NC(=O)[C@H](C)NC(=O)[C@@H]1CSSC[C@H](NC(=O)[C@H](CCCCN)NC(=O)[C@@H](N)CCCCNC(=O)CC[C@H](NC(=O)CCCCCCCCCCCCCCCCC(=O)O)C(=O)O)C(=O)N[C@@H](CC(N)=O)C(=O)N[C@@H]([C@@H](C)O)C(=O)N[C@@H](C)C(=O)N[C@@H]([C@@H](C)O)C(=O)N1)[C@@H](C)O)C(=O)N[C@@H](CC(C)C)C(=O)N1CCC[C@H]1C(=O)N1CCC[C@H]1C(=O)N[C@H](C(=O)N[C@@H](CC(N)=O)C(=O)N[C@H](C(=O)NCC(=O)N1CCC[C@H]1C(=O)N[C@@H](CC(N)=O)C(=O)N[C@H](C(=O)N[C@@H](Cc1ccc(O)cc1)C(N)=O)[C@@H](C)O)C(C)C)[C@@H](C)O [Peptide 148] (H-K([γGlu-C18 diacid])KCNTATCATQRLANFL[Aib]HSSNNFGPILPPTNVGPNTY-NH2; disulfide 3-8) | 3.8 | 191 | 728
3 | CC[C@H](C)[C@H](NC(=O)[C@@H]1CCCN1C(=O)CNC(=O)[C@H](Cc1ccccc1)NC(=O)[C@H](CC(N)=O)NC(=O)CNC(=O)[C@H](CO)NC(=O)[C@H](CO)NC(=O)[C@H](Cc1c[nH]cn1)NC(=O)C(C)(C)NC(=O)[C@H](CC(C)C)NC(=O)[C@H](Cc1ccccc1)NC(=O)[C@H](CC(N)=O)NC(=O)[C@H](C)NC(=O)[C@H](CC(C)C)NC(=O)[C@H](CCCNC(=N)N)NC(=O)[C@H](CCC(N)=O)NC(=O)[C@@H](NC(=O)[C@H](C)NC(=O)[C@@H]1CSSC[C@H](NC(=O)[C@H](CCCCN)NC(=O)[C@@H](N)CCCCNC(=O)CC[C@H](NC(=O)CCCCCCCCCCCCCCCCC(=O)O)C(=O)O)C(=O)N[C@@H](CC(N)=O)C(=O)N[C@@H]([C@@H](C)O)C(=O)N[C@@H](C)C(=O)N[C@@H]([C@@H](C)O)C(=O)N1)[C@@H](C)O)C(=O)N[C@@H](CC(C)C)C(=O)N1CCC[C@H]1C(=O)N1CCC[C@H]1C(=O)N[C@H](C(=O)N[C@@H](CC(N)=O)C(=O)N[C@H](C(=O)NCC(=O)N[C@@H](CO)C(=O)N[C@@H](CC(N)=O)C(=O)N[C@H](C(=O)N[C@@H](Cc1ccc(O)cc1)C(N)=O)[C@@H](C)O)C(C)C)[C@@H](C)O [Peptide 154] (H-K([γGlu-C18 diacid])KCNTATCATQRLANFL[Aib]HSSGNFGPILPPTNVGSNTY-NH2; disulfide 3-8; N-terminus assumed) | 2.7 | 574 | 1540

These reach a lower EC50 [1]. Values come first.

Row | Ratio (selectivity hAMYR vs hCTR, ratio of EC50 values at the two receptors) [1] | EC50 [1] [pM] | EC50 [2] [pM] | Compound
4 | 23.4 | 179 | 4180 | CC[C@H](C)[C@H](NC(=O)[C@@H]1CCCN1C(=O)CNC(=O)[C@H](Cc1ccccc1)NC(=O)[C@H](CC(N)=O)NC(=O)[C@H](CCN)NC(=O)[C@H](CO)NC(=O)[C@H](CO)NC(=O)[C@H](Cc1c[nH]cn1)NC(=O)C(C)(C)NC(=O)[C@H](CC(C)C)NC(=O)[C@H](Cc1ccccc1)NC(=O)[C@H](CC(N)=O)NC(=O)[C@H](C)NC(=O)[C@H](CC(C)C)NC(=O)[C@H](CCCNC(=N)N)NC(=O)[C@H](CCC(N)=O)NC(=O)[C@@H](NC(=O)[C@H](C)NC(=O)[C@@H]1CSSC[C@H](NC(=O)[C@@H](N)CCCCNC(=O)CC[C@H](NC(=O)CCCCCCCCCCCCCCCCC(=O)O)C(=O)O)C(=O)N[C@@H](CC(N)=O)C(=O)N[C@@H]([C@@H](C)O)C(=O)N[C@@H](C)C(=O)N[C@@H]([C@@H](C)O)C(=O)N1)[C@@H](C)O)C(=O)N[C@@H](CC(C)C)C(=O)N1CCC[C@H]1C(=O)N1CCC[C@H]1C(=O)N[C@H](C(=O)N[C@@H](CC(N)=O)C(=O)N[C@H](C(=O)NCC(=O)N[C@@H](CO)C(=O)N[C@@H](CC(N)=O)C(=O)N[C@H](C(=O)N[C@@H](Cc1ccc(O)cc1)C(N)=O)[C@@H](C)O)C(C)C)[C@@H](C)O [Peptide 150, K(γE-C18diacid)[CNTATC]ATQRLANFL(Aib)HSS(Dab)NFGPILPPTNVGSNTY-amide] (H-K([γGlu-C18 diacid])CNTATCATQRLANFL[Aib]HSS[Dab]NFGPILPPTNVGSNTY-NH2; disulfide 2-7; N-terminus assumed)
5 | 14.7 | 61 | 898 | CC[C@H](C)[C@H](NC(=O)[C@@H]1CCCN1C(=O)CNC(=O)[C@H](Cc1ccccc1)NC(=O)[C@H](CC(N)=O)NC(=O)[C@H](CC(N)=O)NC(=O)[C@H](CO)NC(=O)[C@H](CO)NC(=O)[C@H](Cc1c[nH]cn1)NC(=O)C(C)(C)NC(=O)[C@H](CC(C)C)NC(=O)[C@H](Cc1ccccc1)NC(=O)[C@H](CC(N)=O)NC(=O)[C@H](C)NC(=O)[C@H](CC(C)C)NC(=O)[C@H](CCCNC(=N)N)NC(=O)[C@H](CCC(N)=O)NC(=O)[C@@H](NC(=O)[C@H](C)NC(=O)[C@@H]1CSSC[C@H](NC(=O)[C@@H](N)CCCCNC(=O)CC[C@H](NC(=O)CCCCCCCCCCCCCCCCC(=O)O)C(=O)O)C(=O)N[C@@H](CC(N)=O)C(=O)N[C@@H]([C@@H](C)O)C(=O)N[C@@H](C)C(=O)N[C@@H]([C@@H](C)O)C(=O)N1)[C@@H](C)O)C(=O)N[C@H](CC(C)C)C(=O)N1CCC[C@H]1C(=O)N1CCC[C@H]1C(=O)N[C@H](C(=O)N[C@@H](CC(N)=O)C(=O)N[C@H](C(=O)NCC(=O)N[C@@H](CO)C(=O)N[C@@H](CC(N)=O)C(=O)N[C@H](C(=O)N[C@@H](Cc1ccc(O)cc1)C(N)=O)[C@@H](C)O)C(C)C)[C@@H](C)O [Peptide 151, K(γE-C18diacid)[CNTATC]ATQRLANFL(Aib)HSSNNFGPI(dL)PPTNVGSNTY-amide] (H-K([γGlu-C18 diacid])CNTATCATQRLANFL[Aib]HSSNNFGPI[dL]PPTNVGSNTY-NH2; disulfide 2-7; N-terminus assumed)
6 | 12 | 173 | 2160 | H-K([AEEA-AEEA-γGlu-C18 diacid])GGGKCNTATCATQRLANFLVHSSNNFGPILPPTNVGSNTY-NH2 (disulfide 6-11) [Peptide 7]
